Article PMC8248323 (Clinical Pharmacology in Drug Development, 2021)
Marks after values point to notes of the source that are not given here.

Assay: Phase 1 DDI study 004 part B: midazolam
Settings: for effect of lemborexant coadministration on exposure: coadministration with lemborexant 10 mg; for AUC: human, plasma, Geometric LSM
[1] = with lemborexant / without lemborexant
[2] = coadministration of lemborexant with bupropion

Cc1ncc2n1-c1ccc(Cl)cc1C(c1ccccc1F)=NC2 [Midazolam]
effect of lemborexant coadministration on exposure: not affected
effect of lemborexant coadministration on exposure (listed as midazolam): did not have an effect
AUC (AUC0‐inf, midazolam 2 mg + bupropion 75 mg + lemborexant 10 mg daily): 24.1 ng·h/mL
AUC (AUC0‐inf, midazolam 2 mg + bupropion 75 mg, without lemborexant): 21.4 ng·h/mL
AUC (AUC0‐t, midazolam 2 mg + bupropion 75 mg + lemborexant 10 mg daily (n = 28)): 22.9 ng·h/mL
AUC (AUC0‐t, midazolam 2 mg + bupropion 75 mg single dose, without lemborexant (n = 27)): 20.2 ng·h/mL
AUC0‐inf, Geometric Mean Ratio (90%CI) [1]: 1.130 (1.023–1.247)
AUC0‐t, Geometric Mean Ratio (90%CI) [1]: 1.133 (1.025–1.253)
Cmax, Geometric Mean Ratio (90%CI) [1]: 1.126 (1.026–1.236)

C[C@@H]1NC(C)(C)CO[C@@]1(O)c1cccc(Cl)c1 [[S,S]‐hydroxylated bupropion]
AUC0‐t metabolite/parent ratio (bupropion with lemborexant): 124%
AUC0‐t metabolite/parent ratio (bupropion without lemborexant): 88.7%
decrease in AUC0‐t [2]: 24.5%
decrease in Cmax [2]: 17%
Cmax, Geometric LSM (midazolam 2 mg + bupropion 75 mg + lemborexant 10 mg daily): 6.57 ^c ng/mL
AUC0‐t, Geometric LSM (midazolam 2 mg + bupropion 75 mg + lemborexant 10 mg daily (n = 28)): 53.2 ^c ng·h/mL
AUC0‐t, Geometric LSM (midazolam 2 mg + bupropion 75 mg single dose, without lemborexant (n = 27)): 70.5 ng·h/mL
Cmax, Geometric LSM (midazolam 2 mg + bupropion 75 mg, without lemborexant): 7.93 ng/mL
AUC0‐t, Geometric Mean Ratio (90%CI) [1]: 0.755 (0.661–0.862)
Cmax, Geometric Mean Ratio (90%CI) [1]: 0.829 (0.759–0.905)
